Reference: patent US11365177B2, “Chemical uncouplers of respiration and methods of use thereof” (Dana-Farber Cancer Institute, Inc., priority 2017, dated 2022)
Where two headings read alike, the source gives them in different places.

Assays:
C2C12 cells = experiment: Measurement of cellular respiration (Seahorse), uncoupling bioactivity; assay type: cell-based; settings: Mus musculus, 50 μM compound, maximal increase versus basal oligomycin-treated respiration, means SEM, n=3-6/group, read-out: % stimulation of respiration (baseline = 100%)
Protocol: Oligomycin was purchased from EMD Millipore, and FCCP and rotenone were purchased from Sigma. C2C12 cells were seeded at 35,000 cells/well in an XF24 cell culture microplate (V7-PS, Seahorse Bioscience) and analyzed the following day. On the day of analysis, the cells were washed once with Seahorse respiration buffer (8.3 g/l DMEM, 1.8 g/l NaCl, 1 mM pyruvate, 20 mM glucose, pen/strep), placed in 0.5 ml Seahorse respiration buffer, and incubated in a CO2-free incubator for 1 h. Port injection solutions were prepared as follows (final concentrations in assay in parentheses): 10 μM oligomycin (1 μM final), 500 μM indicated compound (50 μM final), 2 μM FCCP (0.2 μM final), and 30 μM rotenone (3 μM final). The Seahorse program was run as follows: basal measurement, 3 cycles; inject port A (oligomycin), 3 cycles; inject port B (compounds), 8 cycles; inject port C (FCCP), 3 cycles; inject port D (rotenone), 3 cycles. Each cycle consisted of mix 2 min, wait 0 min, and measure 2 min. For data expressed as a percentage of oligomycin-treated basal, the respiration at cycle 6 was normalized to 100%, and the maximum respiration at any time point between cycles 7 and 15 inclusive was used.
Tables 1-4 show uncoupling bioactivity of compounds of the disclosure with different fatty acid side chains. Respiration in C2C12 cells is shown as maximal increases versus basal oligomycin-treated respiration, which is normalized to 100%. Data are shown as means SEM, n=3-6/group.

mPM20D1 = target: T1, mPM20D1 (Mus musculus, UniProt Q8C165); experiment: PM20D1 hydrolysis assay; assay type: in vitro ADME, murine; settings: 10 nmol compound in 100 μl PBS, mPM20D1, 1 h at 37° C., LC-MS; FIG. 2
T1 construct: host or cells: 293T cells (secreted into serum-free conditioned media)
T1 sequence (Q8C165 25-503): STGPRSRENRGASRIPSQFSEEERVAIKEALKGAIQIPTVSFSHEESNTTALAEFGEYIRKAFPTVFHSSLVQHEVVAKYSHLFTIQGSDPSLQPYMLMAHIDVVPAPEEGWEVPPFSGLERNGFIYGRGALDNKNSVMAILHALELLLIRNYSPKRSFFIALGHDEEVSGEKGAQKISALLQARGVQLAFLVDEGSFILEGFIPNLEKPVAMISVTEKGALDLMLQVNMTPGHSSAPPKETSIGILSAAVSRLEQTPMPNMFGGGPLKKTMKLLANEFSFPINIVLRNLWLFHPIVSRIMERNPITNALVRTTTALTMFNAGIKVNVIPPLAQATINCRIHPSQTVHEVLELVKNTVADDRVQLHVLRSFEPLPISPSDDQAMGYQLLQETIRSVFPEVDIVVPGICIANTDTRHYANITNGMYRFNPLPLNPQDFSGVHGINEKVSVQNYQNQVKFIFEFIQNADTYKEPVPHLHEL
Protocol: Three 10 cm plates of 293T cells were transiently transfected with murine PM20D1-6×His-Flag plasmid (Addgene plasmid #84566) using PolyFect according to the manufacturer's instructions. After 48 h, cells were washed twice in PBS and switched to serum free DMEM with penicillin and streptomycin. Serum free conditioned media was collected 24 h later and concentrated ˜10-fold in 30 kDa MWCO filters (EMD Millipore) according to the manufacturer's instructions. The concentrated media was centrifuged to remove debris (600×g, 10 min, 4° C.) and the supernatant containing PM20D1-flag was decanted into a new tube. PM20D1-flag was immunoaffinity purified overnight at 4° C. from the concentrated media using magnetic Flag-M2 beads (Sigma Aldrich). The beads were collected, washed three times in PBS, eluted with 3× Flag peptide ([…] in PBS, Sigma Aldrich), aliquoted, and stored at −80° C.
10 nmol of the indicated compound was incubated in 100 μl PBS (100 VM initial substrate). Reactions were initiated by the addition of PBS or mPM20D1 (5 μl). After 1 h at 37° C., reactions were quenched with […] of a 2:1 v/v mixture of chloroform and methanol with 10 nmol d31-palmitate as an internal standard. The reactions were vortexed and the organic layer was transferred to a sample vial for analysis by LC-MS. For separation of polar metabolites, normal-phase chromatography was performed with a Luna-[…] NH2 column (50 mm×4.60 mm, Phenomenex). Mobile phases were as follows: Buffer A, acetonitrile; Buffer B, 95:5 water/acetonitrile with 0.1% formic acid or 0.2% ammonium hydroxide with 50 mM ammonium acetate for positive and negative ionization mode, respectively. The flow rate for each run started at 0.2 ml/min for 2 min, followed by a gradient starting at 0% B and increasing linearly to 100% B over the course of 15 min with a flow rate of 0.7 ml/min, followed by an isocratic gradient of 100% B for 10 min at 0.7 ml/min before equilibrating for 5 min at 0% B with a flow rate of 0.7 ml/min. MS analysis was performed with an electrospray ionization (ESI) source on an Agilent 6430 QQQ LC-MS/MS. The capillary voltage was set to 3.5 kV, and the fragmentor voltage was set to 100 V. The drying gas temperature was 325° C., the drying gas flow rate was 10 l/min, and the nebulizer pressure was 45 psi. Monitoring of hydrolysis starting materials and products was performed by scanning a mass range of m/z 50-1200. Peaks corresponding to the liberated fatty acids (products) or the intact starting material was integrated.

[1] = Liver microsome stability assay; assay type: in vitro ADME; settings: mouse liver microsomes 1 mg/mL, 1 μM compound, NADPH, pH 7.4, 37 C; FIG. 3
Protocol: The compounds were evaluated in a mouse liver microsome assay.
Microsome stability was evaluated by incubating 1 μM test compound with 1 mg/mL hepatic microsomes in 100 mM KPi, pH 7.4 at 37 C with shaking. The reaction was initiated by adding NADPH (1 mM final concentration). Aliquots were removed at 0, 5, 10, 20, 40, and 60 minutes and added to acetonitrile (5× v:v) to stop the reaction and precipitate the protein. NADPH dependence of the reaction was evaluated with -NADPH samples. At the end of the assay, the samples were centrifuged through a Millipore Multiscreen Solvinter 0.45 micron low binding PTFE hydrophilic filter plate and analyzed by LC-MS/MS. Data is log transformed and represented as half-life.

DIO mice = experiment: Treatment of DIO mice with compound: body weight and food intake; assay type: in vivo
Protocol: DIO mice (19 weeks, males, stock #380050) were purchased from The Jackson Laboratory. Mice were maintained on a high fat diet for the duration of the experiment (60% fat, Research Diets). Prior to compound administration, mice were mock injected with vehicle (18:1:1 v/v/v saline:DMSO:Kolliphor EL, intraperitoneal) for 4 days. Compound 33 was prepared in the same vehicle and administered at 5 μl/g body weight at the indicated doses. Administration of vehicle of compound occurred once per day. Data shown in FIG. 4A compared changes in body weights of representative mice at day 7 versus initial weight on day 0. Data shown in FIG. 4B represented average food intake per mouse over the 7 day dosing period for each treatment group.

[2] = Plasma concentration after compound administration in DIO mice; assay type: in vivo; settings: 10 mg/kg, 1 hour after administration, FIG. 5
Protocol: DIO mice (19 weeks, males, stock #380050) were purchased from The Jackson Laboratory. Prior to compound administration, mice were mock injected with vehicle (18:1:1 v/v/v saline:DMSO:Kolliphor EL) for 4 days. Compounds 33 and 37 were prepared in the same vehicle and administered at 10 mg/kg doses. Plasma concentration was measured 1 hour after compound administration.

[3] = Table 3, various fatty acid side chains

Row | microsome stability (in vitro half-life) [1] | Structure (SMILES) | activity at 50 µM (C2C12 cells; Table 5, cyclic head groups) [%] | hydrolysis by PM20D1 (mPM20D1) | also measured
1 | – | CCCCC/C=C\C/C=C\C/C=C\C/C=C\CCCC(=O)N[C@@H](Cc1ccccc1)C(=O)O [Compound 25, ((5Z,8Z,11Z,14Z)-Icosa-5,8,11,14-tetraenoyl)-L-phenylalanine] | – | – | activity at 50 µM (C2C12 cells; [3]): 200 ± 12%
2 | – | CC/C=C\C/C=C\C/C=C\C/C=C\C/C=C\CCCC(=O)N[C@@H](Cc1ccccc1)C(=O)O [Compound 26, ((5Z,8Z,11Z,14Z,17Z)-Icosa-5,8,11,14,17-pentaenoyl)-L-phenylalanine] | – | – | activity at 50 µM (C2C12 cells; [3]): 259 ± 43%
3 | – | CC/C=C\C/C=C\C/C=C\C/C=C\C/C=C\C/C=C\CCC(=O)N[C@@H](Cc1ccccc1)C(=O)O [Compound 27, ((4Z,7Z,10Z,13Z,16Z,19Z)-Docosa-4,7,10,13,16,19-hexaenoyl)-L-phenylalanine] | – | – | activity at 50 µM (C2C12 cells; [3]): 166 ± 11%
4 | – | CCCCCCCC/C=C\CCCCCCCCNC(=O)NCC(=O)O [Compound 28, (Z)-(Octadec-9-en-1-ylcarbamoyl)glycine] | – | – | activity at 50 µM (C2C12 cells; Table 4, urea analogs): 104 ± 3%
5 | – | CCCCCCCC/C=C\CCCCCCCCNC(=O)N[C@@H](Cc1ccccc1)C(=O)O [Compound 29, (Z)-(Octadec-9-en-1-ylcarbamoyl)-L-phenylalanine] | – | – | activity at 50 µM (C2C12 cells; Table 4, urea analogs): 97 ± 5%
6 | – | CCCCCCCC/C=C\CCCCCCCC(=O)N1CCCC[C@H]1C(=O)O [Compound 30, (S)-1-Oleoylpiperidine-2-carboxylic acid] | 174 ± 3 | – | –
7 | – | CCCCCCCC/C=C\CCCCCCCC(=O)N1Cc2ccccc2C[C@H]1C(=O)O [Compound 31, (S)-2-Oleoyl-1,2,3,4-tetrahydroisoquinoline-3-carboxylic acid] | 187 ± 19 | – | –
8 | – | CCCCCCCC/C=C\CCCCCCCC(=O)N1CCc2ccccc2C1C(=O)O (centres unmarked) [Compound 32, 2-Oleoyl-1,2,3,4-tetrahydroisoquinoline-1-carboxylic acid] | 216 ± 17 | – | –
9 | long in vitro half-lives | CCCCCCCC/C=C\CCCCCCCC(=O)N1Cc2ccccc2[C@H]1C(=O)O [Compound 33, (S)-2-Oleoylisoindoline-1-carboxylic acid] | 240 ± 24 | entirely resistant to hydrolysis by PM20D1 | uncoupling bioactivity in vivo (DIO mice; DIO mice on high fat diet, intraperitoneal, once per day): possesses uncoupling bioactivity in vivo; average food consumed per mouse per day (DIO mice; DIO mice, different treatment groups, 7 day dosing period, FIG. 4B): consumed the same amount of food per mouse per day; change in body weight from the initial weight (DIO mice; DIO mice, higher doses, once per day, day 7 versus day 0, FIG. 4A): statistically significant weight loss over time; pharmacokinetic properties in vivo (plasma concentration) [2]: augmented pharmacokinetic properties in vivo
10 | long in vitro half-lives | CCCCCCCC/C=C\CCCCCCCC(=O)N1Cc2ccccc2[C@@H]1C(=O)O [Compound 34, (R)-2-Oleoylisoindoline-1-carboxylic acid] | 190 ± 12 | entirely resistant to hydrolysis by PM20D1 | –
11 | – | CCCCCCCC/C=C\CCCCCCCC(=O)N1c2ccccc2C[C@H]1C(=O)O [Compound 35, (S)-1-Oleoylindoline-2-carboxylic acid] | 146 ± 5 | – | –
12 | long in vitro half-lives | CCCCC/C=C\C/C=C\CCCCCCCC(=O)N1Cc2ccccc2[C@H]1C(=O)O [Compound 36, (S)-2-((9Z,12Z)-Octadeca-9,12-dienoyl)isoindoline-1-carboxylic acid] | 185 ± 18 | entirely resistant to hydrolysis by PM20D1 | –
13 | long in vitro half-lives | CCCCC/C=C\C/C=C\CCCCCCCC(=O)N1Cc2ccccc2[C@@H]1C(=O)O [Compound 37, (R)-2-((9Z,12Z)-Octadeca-9,12-dienoyl)isoindoline-1-carboxylic acid] | 190 ± 12 | entirely resistant to hydrolysis by PM20D1 | pharmacokinetic properties in vivo (plasma concentration) [2]: augmented pharmacokinetic properties in vivo
